B1: MKRMVSWSFHKLKTMKHLLLLLLCVFLVKSQGVNDNEEGFFSARGHRPLDKKREEAPSLRPAPPPISGGGYRARPAKAAATQKKVERKAPDAGGCLHADPDLGVLC (protein)
chain: MKRMVSWSFHKLKTMKHLLLLLLCVFLVKSQGVNDNEEGFFSARGHRPLDKKREEAPSLRPAPPPISGGGRARPAKAAATQKKVERKAPDAGGCLHADPDLGVLCMKRMVSWSFHKLKTMKHLLLLLLCVFLVKSQGVNDNEEGFFSARGHRPLDKKREEAPSLRPAPPPISGGGYRARPAKAAATQKKVERKAPDAGGCLHADPDLGVLC
modifications: GST fusion; fragment Fg1
notes: fragment of Bß chain of human fibrinogen having 106 amino acids; recombinant GST-fused peptide expressed in E. coli

Tests used:
[1] = tested on: P. acnes surface proteins; test: Binding of biotinylated ECM ligands to immobilized P. acnes surface proteins; parameters: species or system Propionibacterium acnes
Method: FIG. 2: Binding of P. acnes surface protein to purified human fibrinogen. (A) P. acnes surface proteins (0.8 to 50 μg/ml) were immobilized onto a 96-well polystyrene plate and probed with biotinylated fibrinogen (0.1 μg/ml) for 2 h at room temperature. (B) P. acnes surface proteins (25 μg/ml) were immobilized onto a 96-well polystyrene plate and probed with various concentrations of biotinylated fibrinogen ranging from 0.1 to 16 μg/ml for 2 h at room temperature. Bound biotinylated fibrinogen were detected with HRP-streptavidine as described in Materials and Methods.
To characterize the interaction between P. acnes and ligands, we used biotinylated molecules in quantitative and qualitative assays. In a first set of assays, ECM ligands (fibrinogen, collagens I, IV, VI and VIII) were used as labelled proteins with biotin. In a second set of assays, P. acnes surface proteins (total extract and purified Pfg) were biotinylated. For quantitative analysis, unlabeled protein were diluted into 50 mM carbonate-bicarbonate, pH 9.6 buffer to yield a protein concentration ranging from 0.01 to 50 μg/ml, and then immobilized to 96-well polystyrene plates at 4° C. overnight. […] After washing, bound peroxidase was detected using the chromogenic peroxidase substrate ABTS. […] Binding activity was detected by incubating the membranes with 20 ml of PBT containing biotinylated proteins (0.1 μg/ml) for 2 h at room temperature followed by three washes with PBT. Bound biotinylated proteins were detected by incubating the membrane with peroxidase conjugated to streptavidin (0.5 μg/ml in PBT) for 1 h at room temperature. After washing, bound peroxidase activity was detected using 3,3′-diaminobenzidine in the presence of CoCl2 and H2O2 (Harlow and Lane, 1988).
In order to identify P. acnes surface protein recognized by ECM ligands, we used the most commons ECM proteins recognize by skin related bacteria like collagens and fibrinogen. […] To identify surface proteins, P. acnes total heat protein extracts were electrophoretically separated and detected by silver staining (FIG. 1B). […]

[2] = tested on: NHDK cells; test: IL-12 production by P. acnes-stimulated NHDK (ELISA); format: cell-based, human; conditions: P. acnes RON, set I, bacteria first pretreated, 0.87 to 7 μM
Method: For experiences of stimulation with P. acnes, cells were incubated with the P. acnes suspension adjusted at the appropriate concentration, pre-treated for 1 h at 37° C. or not with fibrinogen recombinant peptides Fg1 and Fg2 at the concentrations 0.87, 1.75, 3.5 or 7 μM for the desired period of time at 37° C. in 5% CO2.
Human IL-1ß, IL-8, IL-12, hBD-2, and TNF-α protein concentration was measured in the supernatants of stimulated cells using various ELISA Set kits (Ready-Set-Go kit from eBioscience for acne experiments, and for psoriasis experiments the Duo set IL-8 kit from R&D Systems and the BD-2 Human Development (hBD-2) from Peprotech) according to the manufacturer's instructions. We used serial dilutions of recombinant human IL-1ß, IL-8, IL-12 and TNF-α for standard curve. The optical density was determined at 450 nm at a wavelength correction of 540 nm.
To assess the efficacy of Fg1 recombinant peptide, the production of O2^∘− and H2O2 by HaCaT cells NHDK, THP-1, MRC5 and HDF stimulated by pretreated P. acnes strains 6919, RON and PIE was measured. The amount of ROS produced was compared to that produced by the stimulated cells with untreated bacteria. Production baseline was obtained by measuring ROS on unstimulated cells. The production of IL-1ß, IL-8, IL-12 and TNF-α was also measured in all conditions cited above. […]

Molecule	Binding activity of biotinylated ligand to immobilized P. acnes total surface protein ([1]; 25 μg/ml of protein immobilized per well, various quantity of biotinylated Fg and Collagen I)	P. acnes protein extract concentration at which the binding activity for fibrinogen reaches a plateau ([1]; several concentrations of protein extract immobilized, biotinylated fibrinogen 0.1 μg/ml)	Inhibition of Interleukine 12 (IL-12) production [2]
human fibrinogen: purified commercial human fibrinogen (Sigma), glycoprotein hexamer of Aα, Bß and γ chains	strong binding activity	about 6.25 μg/ml	–
B1	–	–	pos
